Results on five compounds are retold here after patent US20230203058A1, “MACROCYCLIC DIAMINE DERIVATIVES AS ENT INHIBITORS FOR THE TREATMENT OF CANCERS, AND COMBINATION THEREOF WITH ADENOSINE RECEPTOR ANTAGONISTS” (ITEOS BELGIUM SA, priority 2020, published 2023).

SMILES strings stand for the structures. Like-named read-outs stand apart in the source and are kept apart here.

Experiment [1] concerns stimulated primary human T cells. Put plainly: T cell proliferation assay (rescue of proliferation in presence of ATP, CFSE dilution). Format: cell-based. The note with it: 100 uM ATP. How it is done: The aim of this study was to determine the potency of equilibrative nucleoside transporter 1 (ENT1) inhibitors to rescue proliferation by stimulated primary human T cells incubated in the presence of 100 uM Adenosine triphosphate (ATP), in baseline conditions (condition A) or in the presence of various proteins known to bind small molecules (condition B). Condition A: X-VIVO15 Condition B: X-VIVO15, 2% Human Serum Albumine (HSA) and 0,1% α-1-Acid Glycoprotein (AAG)
Cryopreserved purified human CD3+ T cells were thawed and washed twice with RPMI1640 medium, UltraGlutamine containing 10% hiFBS.
Cells were suspended in PBS containing 10% hiFBS. Cells were stained with CFSE by adding 2 µM solution in PBS, to get a final 1 µM CFSE solution. Cells were incubated while rotating for 5 minutes. Reaction was stopped by adding PBS with 10% FBS and cells were centrifuged for 5 minutes at 1500 rpm.
Cells were resuspended at 1.6 ×10^6 cells/mL, either in X-VIVO15 medium or in 4% Human Serum Albumin and 0,2% α-1-Acid Glycoprotein. 50 µL of cell suspension (8×10^4 T cells) was added to wells of sterile round-bottom 96-well plates. Cells were activated by adding 50 µL of anti-CD3 anti-CD28 coated microbeads, suspended either in XVIVO-15 medium or in 4% HSA and 0,2% α-1-Acid Glycoprotein, at a ratio of one microbead per two cells. Serial dilutions of the ENT1 inhibitors were prepared in X-VIVO15 from 10 mM stock solutions in DMSO, and 50 µL was added to the wells. ATP powder was diluted in X-VIVO15, and 50 µL of this compound was added to the wells to reach a final assay concentration of 100 µM. Final volume of 200 µL. The experiments were also performed in 384 well plates - all volumes reduced by a factor of 4 (12,5 µL) with a final volume of 50 µL. Experiments were performed in duplicate. The cells were placed in a 37° C. humidified tissue culture incubator with 5% CO2 for 72 hours for 96 well plates, 96 hours for 384 well plates. After 72 or 96 hours, proliferation was measured determined by CFSE dilution via flow cytometry.

The target of experiment [2] is T1, human ENT1 (Homo sapiens, UniProt Q99808).
T1 sequence (Q99808 1-456): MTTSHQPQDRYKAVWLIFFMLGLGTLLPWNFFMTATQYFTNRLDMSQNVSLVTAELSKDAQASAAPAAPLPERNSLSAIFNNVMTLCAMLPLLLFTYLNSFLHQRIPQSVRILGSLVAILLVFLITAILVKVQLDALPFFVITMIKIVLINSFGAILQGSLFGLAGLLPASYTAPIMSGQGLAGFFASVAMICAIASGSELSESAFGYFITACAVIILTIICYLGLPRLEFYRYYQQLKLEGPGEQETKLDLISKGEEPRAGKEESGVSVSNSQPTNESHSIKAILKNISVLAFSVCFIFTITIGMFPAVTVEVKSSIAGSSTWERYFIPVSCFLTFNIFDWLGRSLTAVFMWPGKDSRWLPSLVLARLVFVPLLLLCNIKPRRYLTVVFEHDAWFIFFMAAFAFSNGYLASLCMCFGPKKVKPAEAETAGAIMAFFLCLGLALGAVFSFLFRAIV
Put plainly: Uridine transport inhibition assay (3H-uridine uptake in MDCKII-ENT1-LV cells). It counts as cell-based. The settings on record: uridine 1 µM, 1 min at 25° C. From the text: The aim of this study was to determine the potency of equilibrative nucleoside transporter 1 (ENT1) inhibitors by measuring ENT1-mediated transport is the cellular uptake assay. The human ENT1 transporter can be stably expressed in Madin-Darby Canine Kidney II (MDCKII) cells via transduction. Uridine is efficiently transported by ENT1 and is used as probe in the assay as 3 H-uridine. The interaction is detected as the modulation of the initial rate of 3 H-uridine transport by human ENT1 into MDCKII-ENT1-LV cells stably expressing ENT1 uptake transporter.

The target of experiment [3] is T1, human ENT1. Put plainly: ENT1 binding assay (competition with Sahenta-DY647 on JAR cells). Set-up: JAR cells expressing ENT1 were bought from ATCC® (HTB-144TM); host or cells: JAR cells (human choriocarcinoma line; whole cells). The settings on record: competition with Sahenta-DY647 100 nM, 4° C. In a few lines:
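Competition binding on intact JAR cells (50000 per well) in HBSS with 10 mM Hepes and 0.1% BSA. Cells pre-incubated with compound 30 min at 4 °C, then Sahenta-DY647 added at its IC90 (100 nM) for another 30 min at 4 °C; after washing, fluorescence read at Ex 630/Em 670 nm.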

In the next experiment the target is T2, hERG ion channel (Homo sapiens, UniProt Q12809).
T2 construct: Chinese Hamster Ovary cell lines stably expressing the full-length ion channel; expressed in transfected cells
Put plainly: hERG ion channel inhibition (Patchliner automated patch-clamp, CHO cells). Format: cell-based. The note with it: whole-cell, room temperature, 6-point curve up to 100 µM. How it is done: The compounds were tested for inhibition of hERG ion channel. 6-Point concentration-response curves were generated on the Patchliner automated patch-clamp using serial dilutions from a maximum test concentration of 100 µM.
Compounds were solubilised to 33 mM in DMSO before dilution in HBPS to 100 µM. 6-Point concentration-response curves were generated using serial dilutions from the top test concentration. Electrophysiological recordings were made from a Chinese Hamster Ovary cell lines stably expressing the full-length ion channel. Single cell ionic currents were measured in whole-cell configuration at room temperature (21-23° C.) using a Patchliner (Nanion Technologies). The internal solution for hERG contained (mM): 120 KF, 20 KCl, 10 EGTA, 10 HEPES and was buffered to pH 7.3. The external solution (HEPES-buffered saline, HBPS) contained (mM): 138 NaCl, 4.5 KCl, 1.8 CaC12, 1.0 MgC12, 10 HEPES, 10 glucose, buffered to pH7.4. Cells were clamped at a holding potential of -80 mV before a depolarising step appropriate for the hERG channel. Currents were measured from the step and referenced to the holding current. Compounds were incubated for 90 seconds. Concentration-response curves were generated by cumulative addition of compound with concentrations low to high. In all cases, steady-state inhibition was achieved before the next concentration of compound was added.
IC50 values were obtained from a 4-parameter logistic fit of the concentration-response data: […]

Another experiment relates to MCA205 cells. The experiment in a line: Syngeneic fibrosarcoma model (MCA205, FIG. 4). Format: in vivo, C57BL/6 mice. The procedure: FIG. 4 consists of three graphs: A, B, and C depicting the evalution of to assess the anti-tumor efficacy of compound Compound 8 in syngeneic fibrosarcoma model.
To assess the anti-tumor efficacy of compound Compound 8 in syngeneic fibrosarcoma model, C57BL/6 (n=8) were subcutaneously inoculated with […] MCA205 cells in the right flank. At day 8 after inoculation the mice were randomized according tumor size and received oral treatment of Compound 8 at 10 mg/kg or its vehicle. The mice were monitored 3 times a week for tumor measurements, and the data plotted below. […] (FIG. 4B and FIG. 4C) At day 21 after inoculation, 57% of the mice treated with 10 mg/kg of Compound 8 were responsive to Compound 8 treatment and at day 31 15% of the mice presented significant tumor growth delay with tumors below 1000 mm^3. The statistical analysis was performed in JMP software using linear fixed model.

The test system of another experiment is human T cells. Put plainly: T cell stimulation assay (Example III, FIG. 1). Format: cell-based. The settings on record: ATP 100 µM. The procedure: FIG. 1A depicts a graph of log concentration (M) versus percent proliferation. Purified human T cells were activated with anti-CD3/CD28 dynabeads in the presence of ATP (100 µM) as a source of adenosine for 96 h and then proliferation was assessed by CFSE dilution.
FIG. 1B depicts a graph of log concentration of ENT1 inhibitor (M) versus percent proliferation. Experiment performed as in FIG. A with the addition of HSA and AAG to the culture medium (final concentration 2 and 0.1%, respectively).
Peripheral blood mononuclear cells (PBMCs) were first isolated via centrifugation of fresh whole blood over Lymphoprep using SepMate-50 tubes (both from […] Technologies) according to the manufacturer’s instructions. Human T cells were then isolated from the PBMCs using the EasySep Human T cell Isolation Kit ([…] Technologies) according to the manufacturer’s instructions and the cells were cryopreserved in FBS with 10% DMSO until required.
Cryopreserved human T cells were thawed on the day of the experiment and resuspended in PBS with 10% FBS at approximately 1 × 10^7 cells/ml. This cell suspension was diluted 1:1 with 2 µM CFSE solution (ThermoFisher Scientific) in PBS and incubated for 5 minutes at room temperature. The labelling reaction was quenched by further addition of PBS with 10% FBS, and then the cells were washed into X-VIVO15 medium (Lonza) for use in the T cell assay.
CFSE-labelled T cells were plated at 2 × 10^4 cells per well in 384 well plates in the presence of ATP (100 µM, Sigma-Aldrich) as a source of adenosine. Activation was driven by the addition of Dynabeads Human T-Activator CD3/CD28 (ThermoFisher Scientific) at a ratio of 0,5 beads per T cell. ENT1 inhibitor molecules including the reference molecule dilazep (Tocris Bioscience) were added, the volume of the wells was adjusted to 50 µl with X-VIVO15 medium and the plates were cultured in a humidified incubator for 96 h at 37° C. with 5% CO2. In some experiments the culture was supplemented with human serum albumin (HSA) and alpha-1-acid glycoprotein (AAG, both Sigma-Aldrich) at final concentrations of 2 and 0,1%, respectively.
Analysis of proliferation via CSFE dilution was performed by flow cytometry using a BD LSR Fortessa with data analysis on FlowJo (BD Biosciences).

Where [4] appears, read: Condition A: X-VIVO15, read-out: T Cell proliferation (Condition A) IC50.
The mark [5] stands for this setting: Condition B: X-VIVO15, 2% HSA and 0,1% AAG, read-out: (2) T Cell proliferation (Condition B) IC50.
[6] abbreviates: anti-CD3/CD28 dynabeads, 96 h (FIG. 1A), read-out: IC50 of restoration of T cell proliferation.
Setting [7] is: with HSA 2% and AAG 0,1% (FIG. 1B), read-out: IC50 of restoration of T cell proliferation under high protein binding conditions.

T2 sequence (Q12809 whole entry): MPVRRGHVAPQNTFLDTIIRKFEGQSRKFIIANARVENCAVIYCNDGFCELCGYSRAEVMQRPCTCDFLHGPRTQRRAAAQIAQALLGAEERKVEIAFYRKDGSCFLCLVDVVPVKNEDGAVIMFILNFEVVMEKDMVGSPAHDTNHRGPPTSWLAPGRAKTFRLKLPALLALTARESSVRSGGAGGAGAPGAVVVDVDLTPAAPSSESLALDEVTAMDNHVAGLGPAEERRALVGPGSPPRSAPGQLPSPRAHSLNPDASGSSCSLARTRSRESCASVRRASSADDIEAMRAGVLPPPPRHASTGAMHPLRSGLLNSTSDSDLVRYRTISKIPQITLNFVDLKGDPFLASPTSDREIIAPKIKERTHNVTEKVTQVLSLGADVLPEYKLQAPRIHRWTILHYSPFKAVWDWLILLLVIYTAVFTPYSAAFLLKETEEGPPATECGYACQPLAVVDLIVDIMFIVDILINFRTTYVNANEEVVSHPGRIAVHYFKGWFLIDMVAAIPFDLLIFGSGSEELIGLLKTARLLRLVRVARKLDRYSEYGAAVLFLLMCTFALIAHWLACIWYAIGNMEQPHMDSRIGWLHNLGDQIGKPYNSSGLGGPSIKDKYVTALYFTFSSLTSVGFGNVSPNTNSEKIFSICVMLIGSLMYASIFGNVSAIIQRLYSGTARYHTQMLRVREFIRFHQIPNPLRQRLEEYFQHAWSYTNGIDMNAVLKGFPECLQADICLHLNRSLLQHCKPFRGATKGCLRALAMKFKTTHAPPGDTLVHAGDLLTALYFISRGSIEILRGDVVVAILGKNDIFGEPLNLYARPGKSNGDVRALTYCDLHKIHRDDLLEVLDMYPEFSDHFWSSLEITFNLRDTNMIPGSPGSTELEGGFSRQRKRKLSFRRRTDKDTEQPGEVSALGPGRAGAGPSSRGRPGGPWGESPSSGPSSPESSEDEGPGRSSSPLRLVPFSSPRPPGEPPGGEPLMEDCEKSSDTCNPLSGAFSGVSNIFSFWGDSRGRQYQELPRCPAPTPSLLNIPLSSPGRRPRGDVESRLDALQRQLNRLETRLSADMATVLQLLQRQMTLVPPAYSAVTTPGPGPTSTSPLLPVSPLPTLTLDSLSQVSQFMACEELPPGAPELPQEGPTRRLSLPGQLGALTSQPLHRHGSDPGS

As to `COc1cc(C(=O)O[C@@H]2CCCOc3cc(cc(OC)c3OC)C(=O)N(C)CCCN3CCCN(CC2)CC3)cc(OC)c1OC` [Compound 13, (12R)-74,75-dimethoxy-5-methyl-6-oxo-8-oxa-5-aza-1(1,4)-diazepana-7(1,3)-benzenacyclotetradecaphane-12-yl 3,4,5-trimethoxybenzoate], the IC50 is 1 to 20 nM in experiment [1] (setting [4]), above 500 nM in experiment [1] (setting [5]), 1 to 20 nM against human ENT1 [2] and 1 to 20 nM at human ENT1 [3].

As to `COc1cc(C(=O)OC2CCCOc3cc(cc(OC)c3OC)C(=O)OCCCN3CCN(CC2)CC(F)(F)C3)cc(OC)c1OC` (stereo not shown) [Compound 4, 16,16-difluoro-74,75-dimethoxy-6-oxo-5,8-dioxa-1(1,4)-diazepana-7(1,3)-benzenacyclotetradecaphane-12-yl 3,4,5-trimethoxybenzoate], the IC50 on hERG ion channel is 73000 nM; in experiment [1] (setting [4]) it was below 1 nM; in experiment [1] (setting [5]), 1 to 20 nM; at human ENT1 [2], 1 to 20 nM; on human ENT1 [3] it was 1 to 20 nM.

For `COc1cc(C(=O)O[C@@H]2CCCOc3cc(cc(OC)c3OC)C(=O)NCCCN3CCCN(CC2)CC3)cc(OC)c1OC` [Compound 10, (12R)-74,75-dimethoxy-6-oxo-8-oxa-5-aza-1(1,4)-diazepana-7(1,3)-benzenacyclotetradecaphane-12-yl 3,4,5-trimethoxybenzoate], the IC50 against hERG ion channel is 3400 nM; in experiment [1] (setting [4]) it was 1 to 20 nM; in experiment [1] (setting [5]), 20 to 500 nM; against human ENT1 [2], 1 to 20 nM; at human ENT1 [3] it was 1 to 20 nM.

`COc1cc(C(=O)OC2CCCOc3cc(cc(OC)c3OC)C(=O)NCCCN3CCCN(CC2)CC3)cc(OC)c1OC` (stereo not shown) [Compound 8, 74,75-dimethoxy-6-oxo-8-oxa-5-aza-1(1,4)-diazepana-7(1,3)-benzenacyclotetradecaphane-12-yl 3,4,5-trimethoxybenzoate]: in the experiment on MCA205 cells (10 mg/kg oral (FIG. 4A)), the “Median tumor growth kinetics versus vehicle” value was “slight change in tumor size”. Further, the “Mice responsive to treatment” value with MCA205 cells (10 mg/kg oral, day 21 after inoculation) worked out at 57%. Further, in the experiment with MCA205 cells (10 mg/kg oral, day 31 after inoculation), the “Mice with significant tumor growth delay, tumors below 1000 mm^3” value came to 15%. The results for the IC50 in the experiment with human T cells (setting [6]), in the experiment on human T cells (setting [7]) and at human ENT1 [3] were 2 nM, 16 nM and 1 to 20 nM, respectively.

For `COc1cc(C(=O)OCCCN2CCCN(CCCOC(=O)c3cc(OC)c(OC)c(OC)c3)CC2)cc(OC)c1OC` [Dilazep, dilazep, reference compound], the IC50 against hERG ion channel is 900 nM; in experiment [1] (setting [4]), 1 to 20 nM; in experiment [1] (setting [5]) it was 20 to 500 nM; in the experiment with human T cells (setting [6]), 71 nM; in the experiment with human T cells (setting [7]), 337 nM.
